# From US20020137141A1, “Short peptides from the 'A-region' of protein kinases which selectively modulate protein kinase activity” (Children's Medical Center Corporation, priority 2000, published 2002)
# Where no end group is shown, it is not given here.
# Legend:
# adipose cells = test: Glucose uptake (3H-deoxy glucose) in fresh rat adipocytes; assay type: cell-based; settings: for glucose uptake: 10 μM compound, fresh adipocytes, without insulin, vs control (vehicle)
# Description: To 3 ml of KRBH buffer with 10 mg collagenase, 3g epididymal fat pad (from 2-3 male rats lightly ether anesthesised and then decapitated) was introduced. The fat was cut up with scissors. The pieces of fat were swirled and shaken in the collagenase solution in a 37° C. water bath, set at 100-150 repetitions/minute, for approximately 1 hour with swirling every 15 minutes while digesting and every 5 minutes towards the end. About 6 ml of buffer was then added to the vial. The content of the vial was gently squeezed through a 250 μ nylon mesh into a 50 ml plastic tube. The residual fat tissue was washed (the total volume for each wash was 15 ml): the tube was centrifuged whereby the adipose cells floated at the top of the liquid. The buffer was removed using a syringe with polyethylene capillary. Buffer was added to get 15 ml and clumps of adipose cells were broken up by gently mixing up and down. This procedure was repeated for a total of 4 centrifugations: 3 centrifugations at 1000 rpm with the last centrifugation at 2000 rpm. At this point, the buffer was removed. Fresh buffer was added to the cell suspension to form a cytocrit of 5-10%. The cells were rolled at 10 rpm at 37° C. for 1 hour.
# 50 μl 0.1% BSA in PBS was placed with compounds comprising IRK-derived peptides (final concentrations: 0.1-50 μM) or the peptide-vehicle in each 2 ml plastic tube in duplicates. 950 μl aliquots of the cell suspension were added to the tubes. After incubation for 1 hour at 37° C. in a roller (10 rpm), 200 ul of insulin was added to certain tubes to get final concentrations of 2.5-1000 uU/ml and than 200 μl of KRBH buffer containing 3H—Deoxy Glucose (approx. 1200 dpm/μl) was added to each tube. After 30 minutes incubation with the 3H-DOG and insulin at 37° C., 200 μl aliquots were transferred to microcentrifuge tubes containing 200 μl Dinonyl phthalate in duplicates. Cells were rapidly separated from the aqueous buffer by centrifugation at 10,000 g for 60 sec. The cells were isolated in the top layer of the dinonyl phthalate phase. The upper part of the tube (which contains the cells) was cut and transferred to scintillation tube. 4 ml of scintillation liquid was added.
# Cell associated radioactivity was counted in a liquid scintillation beta counter.
# Glucose-uptake was measured in fresh adipocytes, incubated with or without insulin (10 μ/ml) as described above, in the absence (vehicle) or the presence of 10 μM of a compound K094A107 (“107”) SEQ ID NO: 102; or K094A205 (“205”) (SEQ ID NO: 123), which was kept in a reducing environment (5 to 25 μM DTT) As a comparison the glucose uptake with insulin alone was determined.
# Erk1 = test: Western blot, phosphorylation of downstream substrate Erk1; assay type: cell-based, rat; settings: dose dependent, compared with insulin, FIG. 10
# Description: (§1) All experiments were carried out with H4 cells (Rat hepatoma cell line).Cells were pre-incubated with the compound K094A107 comprising an IRK-derived peptide (SEQ ID NO: 102)(10mM) or the corresponding controls for 3 hours ( one control was control -no treatment vehicle only, the second control was an irrelevant peptide derived from a non-A-region of a kinase), and with human recombinant insulin (100 nM), for 5 minutes. The cells were then lysed and cell lysates were subjected to Western Blot analysis followed by detection with ECL.
# (§2) The membrane was incubated overnight with a primary polyclonal Anti-PhosphoPKB (phospho-serine 473 PKB)Ab, or with an antibody for IRK and then, after 3 washes with TBST, with secondary HRP antibody was added for 1 hour. In the second gel the membrane was incubated overnight with a primary monoclonal PhosphoTyrosine Kinase (PY99) Ab that labels phosphorylated tyrosine, and then after 3 washes with TBST, a secondary antibody was added for 1 hour.
# (§3) A similar experiment was conducted with the difference being that the substrates tested were the substrates of the kinase associated signal transduction that are more downstream in the pathway: Erk1, and p38-MAP.
# p38-MAP = test: Western blot, phosphorylation of downstream substrate p38-MAP; assay type: cell-based, rat; settings: dose dependent, compared with insulin, FIG. 10
# Description: as §1, §2, §3
# IRK substrates = test: Western blot of FIG. 10 as worded in the figure legend; assay type: cell-based, rat; settings: FIG. 10 legend
# Description: as §1, §3
# IRK = test: Western blot, phosphorylation of IRK in H4 cells; assay type: cell-based, rat; parameters: dose or concentration left out as unconfirmed; settings: pre-incubated 3 hours with compound, FIG. 9
# Description: as §1, §2
# PKB = test: Western blot, phosphorylation of PKB in H4 cells; assay type: cell-based, rat; parameters: dose or concentration left out as unconfirmed; settings: pre-incubated 3 hours with compound, phospho-serine 473, FIG. 9
# Description: as §1, §2
# male Sabra rats = test: Blood glucose in streptozotocin-induced diabetic rats; assay type: in vivo, rat; settings: 10 mg/animal I.P., insulin 0.125 units/animal one hour later
# Description: Diabetes was induced in male Sabra rats (150-200 gr) by I.P. injection of streptozotocin (Sigma, S0130) 60 mg/Kg dissolved in ph 4.5 saline (Biochemical and biophysical research comunications 197(3): 1549-1555 (1993)), which is known to destroy insulin-secreting pancreatic cells. After 2-7 days the rats were all diabetic, as determined by blood glucose level above 200 mg/dl which was measured with glucometer.
# 12 rats were divided into 3 groups, with homogenic blood glucose level, each consisting of 4 animals
# Group I was administered with K094A107 (SEQ ID NO: 102) 10 mg/animal (I.P.) followed by administration of insulin 0.125 units/animal (low concentration of insulin that nearly doesn't give any significant decrease in blood glucose level) one hour later.
# Group II was administered with K094A205 (A-region in SEQ ID NO: 123) 10 mg/animal (I.P.) followed by insulin 0.125 units/animal one hour later.
# Group III served as control and was administered I.P. with vehicle (NAC/DMSO-DIDV) followed by insulin 0.125 units/animal one hour later.
# neural crest cells = test: Emigration of neural crest cells from explanted neural primordia; assay type: cell-based, quail
# Excerpt: The procedure for explants of neural primordia is described in greater detail in Sela-Donefeld and Kalcheim (Development, 125(21): 4749-4762 (1999)), the teaching of which was incorporated herein by reference.
# The trunk region of 16 somite-old quail embryos was separately sectioned at the level of the segmental plate plus the last 2 epithelial somite pairs. Neural primordia consisting of the neural tube and premigratory neural crest cells were isolated from adjacent tissues with 25% pancreatin in PBS, transferred to PBS supplemented with 5% newborn calf serum to stop enzymatic activity and washed in serum-free culture medium prior to explanation. The neural primordia were then explanted onto multi-well chamber slides that were pre-coated with fibronectin (50 μg/ml) for 1 hour. The neural primordia were cultured in 50 μl of either serum-free CHO—S-SFMII medium (GibcoBRL, USA) or condition medium of noggin producing-CHO cells, in the absence or presence of the tested compound, in a final concentration of 5 μM and incubated in a humid chamber for 24 hours. At the end of the incubation, the primordia were gently washed with PBS and fixed with Bouin's fluid, washed 3 times with PBS, dried and covered.
molecule,measurement,setting,value
"K094A107: compound comprising an IRK A-region derived peptide, N-myristylated and C-amidated (GGFTCHHVVRL-NH2; not fully specified (N-terminus))",glucose uptake in combination with insulin,adipose cells; 10 μM compound in the presence of 10 μU/ml insulin,synergistic
same,glucose uptake,adipose cells,increase glucose uptake levels beyond the level of control glucose uptake
same,"glucose uptake, dose dependence",adipose cells; different concentrations of the compound (FIG. 6B),induce glucose uptake in a dose-dependent manner
same,phosphorylation of ERK1,Erk1,increase the phosphorylation of ERK1 and p38-MAP in a dose dependent manner
same,phosphorylation of p38-MAP,p38-MAP,increase the phosphorylation of ERK1 and p38-MAP in a dose dependent manner
same,phosphorylation of IRK substrates,IRK substrates,"decrease of phosphorylation of IRK substrates, in a dose dependent manner"
same,phosphorylation of IRK,IRK,able to increase phosphorylation
same,phosphorylation of PKB,PKB,able to increase phosphorylation
"K094A205: compound comprising IRK A-region derived sequence, kept in a reducing environment (GGFTCHHVVRL; IRK)",glucose uptake,adipose cells,increase glucose uptake levels beyond the level of control glucose uptake
same,time at which effect of a single administration on blood glucose was still notable,male Sabra rats,≥ 24 h
same,glucose blood levels,"male Sabra rats; measured for 24 hours, vs vehicle plus insulin",marked reduction
K098A100: compound comprising ALK-3-derived A-region peptide (GLMRHENILGF; Alk3),neural crest migration in the presence of noggin,"neural crest cells; 5 μM compound, 24 hours, condition medium of noggin producing-CHO cells",overcomes this inhibition and induces neural crest migration
same,number of migrating neural crest cells,"neural crest cells; 5 μM compound, 24 hours, serum-free medium, absence of noggin",the number of migrating cells is higher
"Noggin: specific inhibitor of BMP-4; condition medium of noggin producing-CHO cells (protein, UniProt Q13253 28-232, looked up, CHO conditioned medium, condition medium of noggin producing-CHO cells) Noggin: QHYLHIRPAPSDNLPLVDLIEHPDPIFDPKEKDLNETLLRSLLGGHYDPGFMATSPPEDRPGGGGGAAGGAEDLAELDQLLRQRPSGAMPSEIKGLEFSEGLAQGKKQRLSKKLRRKLQMWLWSQTFCPVLYAWNDLGSRFWPRYVKVGSCFSKRSCSVPEGMVCKPSKSVHLTVLRWRCQRRGGQRCGWIPIQYPIISECKCSC",neural crest migration,"neural crest cells; noggin alone, no compound",blocks the neural crest migration
